From publication PMC9147192, “Small Molecule Arranged Thermal Proximity Coaggregation (smarTPCA)—A Novel Approach to Characterize Protein–Protein Interactions in Living Cells by Similar Isothermal Dose–Responses” (International Journal of Molecular Sciences, 2022) come the findings set out here.

Molecules are shown by their SMILES.

The experiment has as its target T1, GANAB (Homo sapiens, UniProt Q14697).
T1 construct: endogenous in cells; host or cells: HL-60 (ATCC CCL-240)
T1 sequence (Q14697 29-944): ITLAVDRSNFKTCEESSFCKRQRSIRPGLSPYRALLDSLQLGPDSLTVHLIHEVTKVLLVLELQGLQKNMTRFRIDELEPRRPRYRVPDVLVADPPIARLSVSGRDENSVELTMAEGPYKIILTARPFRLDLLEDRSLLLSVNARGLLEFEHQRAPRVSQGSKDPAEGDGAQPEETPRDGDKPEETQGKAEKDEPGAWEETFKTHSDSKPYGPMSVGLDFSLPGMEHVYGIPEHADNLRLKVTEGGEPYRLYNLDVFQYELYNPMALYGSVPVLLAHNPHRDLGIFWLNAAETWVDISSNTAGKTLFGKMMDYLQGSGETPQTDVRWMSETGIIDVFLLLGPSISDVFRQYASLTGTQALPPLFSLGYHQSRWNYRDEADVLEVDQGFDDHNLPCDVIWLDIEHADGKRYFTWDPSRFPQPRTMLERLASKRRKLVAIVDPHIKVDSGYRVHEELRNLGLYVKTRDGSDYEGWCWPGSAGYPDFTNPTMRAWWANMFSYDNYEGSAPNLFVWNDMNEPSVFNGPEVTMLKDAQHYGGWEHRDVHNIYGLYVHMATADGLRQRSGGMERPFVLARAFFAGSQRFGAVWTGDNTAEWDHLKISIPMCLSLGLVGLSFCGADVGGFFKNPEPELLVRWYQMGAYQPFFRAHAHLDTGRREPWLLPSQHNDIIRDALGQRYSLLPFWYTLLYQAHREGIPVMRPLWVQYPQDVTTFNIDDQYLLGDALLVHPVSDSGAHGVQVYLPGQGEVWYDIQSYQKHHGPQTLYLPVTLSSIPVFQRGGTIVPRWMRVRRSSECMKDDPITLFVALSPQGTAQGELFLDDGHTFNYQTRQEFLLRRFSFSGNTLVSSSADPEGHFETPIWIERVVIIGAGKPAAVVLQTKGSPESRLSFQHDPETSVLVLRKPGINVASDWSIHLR
The experiment can be described thus: TPP-CCR in living HL-60 cells. In kind it is cell-based.

Usually Hill slope stands for the slope factor of the fitted curve. `Cc1cnc(Nc2ccc(F)cc2Cl)nc1-c1c[nH]c(C(=O)N[C@H](CO)c2cccc(Cl)c2)c1` [ERK 11e] had a Hill slope (TPP-CCR, living cells, GANAB) of 1.81. Besides, the “Hill slope (GANAB)” value (living HL-60 cells, […] °C, TMT-MS) is recorded as 1.81. Besides, the EC50 (living HL-60 cells, […] °C, TMT-MS, read-out: pEC50 (GANAB) (converted)) was 5.25 µM.
